In US5624923A, “Tricyclic diazepine vasopressin antagonists and oxytocin antagonists” (priority 1995, dated 1997):
Values belong to the molecule of their own block, whether it stands above or below them.

Columns and labels:
[1] = tested on: Vasopressin V1; assay: Vasopressin V1 Antagonist Activity in Conscious Rats (vasopressin vasopressor response); format: in vivo, rat; design: Average Change: unit not given here; conditions: for % Inhibition / Average Change: SHR
Method in brief: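 Conscious rats are restrained supine, and under local 2% procaine a PE 10/20 cannula is passed through the ventral caudal tail artery into the lower abdominal aorta. The caudal vein is cannulated for intravenous dosing. Blood pressure is recorded with a Statham P23Db transducer, and vasopressin injections are repeated after compound dosing. Percent antagonism is calculated against the pre-drug vasopressor response taken as 100%.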

[2] = molecular target: T1, Rat Kidney Medullary V2 Receptors (Rattus norvegicus, UniProt Q00788); assay: Binding Assay to Rat Kidney Medullary V2 Receptors; conditions: for IC50: rat kidney medulla membranes, read-out: V2 IC50
T1 construct: Medullary tissues from rat kidneys are dissected out; from tissue; host or cells: rat kidney medulla membranes
Method in brief: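 Membranes were prepared from rat kidney medulla and stored in 50.0 mM Tris-HCl pH 7.4 with 0.2% BSA and 0.1 mM PMSF. Radioligand competition ran 120 min at bench temperature, with 1.0 μM unlabeled ligand defining nonspecific binding. Compounds were added in 50% DMSO; filtration, tritium scintillation counting, IC50 from competition analysis.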

[3] = molecular target: T2, Rat Hepatic V1 Receptors (Rattus norvegicus, UniProt P30560); assay: Binding Assay to Rat Hepatic V1 Receptors; conditions: for IC50: rat liver membranes, read-out: V1 IC50
T2 construct: Rat liver plasma membranes expressing the vasopressin V1 receptor subtypes; from tissue; host or cells: rat liver plasma membranes

[4] = tested on: Vasopressin V2; assay: Vasopressin V2 Antagonist Activity in Conscious Hydrated Rats; format: in vivo, rat; conditions: AVP 0.4 μg/kg i.p.
Method in brief: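 Four-hour urine output, osmolality and electrolytes (Na+, K+, Cl−) recorded in water-loaded rats (30 mL/kg deionized water orally) given AVP i.p. at 0.4 μg/kg. Test compounds were given orally at 0.1–100 mg/kg 1 h before AVP; 2–4 rats per compound.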

[5] = 10 mg/kg i.v., VAS 0.01 i.u./kg, 30 min
[6] = 10 mg/kg i.v., VAS 0.02 i.u./kg, 30 min
[7] = 20 mg/kg i.v., VAS 0.01 i.u./kg, 60 min
[8] = 20 mg/kg i.v., VAS 0.01 i.u./kg, 90 min
[9] = 20 mg/kg i.v., VAS 0.01 i.u./kg, 120 min
[10] = 20 mg/kg i.v., VAS 0.01 i.u./kg, 180 min
[11] = 20 mg/kg i.v., VAS 0.01 i.u./kg, 240 min
[12] = 20 mg/kg i.v., VAS 0.01 i.u./kg, 300 min
[13] = 20 mg/kg i.v., VAS 0.02 i.u./kg, 60 min
[14] = 20 mg/kg i.v., VAS 0.02 i.u./kg, 90 min
[15] = 20 mg/kg i.v., VAS 0.02 i.u./kg, 120 min
[16] = 20 mg/kg i.v., VAS 0.02 i.u./kg, 180 min
[17] = 20 mg/kg i.v., VAS 0.02 i.u./kg, 240 min
[18] = 20 mg/kg i.v., VAS 0.02 i.u./kg, 300 min
[19] = 10 mg/kg i.v., VAS 0.01 i.u./kg, 60 min
[20] = 10 mg/kg i.v., VAS 0.01 i.u./kg, 90 min
[21] = 10 mg/kg i.v., VAS 0.01 i.u./kg, 120 min
[22] = 10 mg/kg i.v., VAS 0.01 i.u./kg, 180 min
[23] = 10 mg/kg i.v., VAS 0.01 i.u./kg, 240 min
[24] = 10 mg/kg i.v., VAS 0.01 i.u./kg, 300 min
[25] = 10 mg/kg i.v., VAS 0.02 i.u./kg, 60 min
[26] = 10 mg/kg i.v., VAS 0.02 i.u./kg, 90 min
[27] = 10 mg/kg i.v., VAS 0.02 i.u./kg, 120 min
[28] = 10 mg/kg i.v., VAS 0.02 i.u./kg, 180 min
[29] = 10 mg/kg i.v., VAS 0.02 i.u./kg, 240 min
[30] = 10 mg/kg i.v., VAS 0.02 i.u./kg, 300 min

T2 sequence (P30560 whole entry): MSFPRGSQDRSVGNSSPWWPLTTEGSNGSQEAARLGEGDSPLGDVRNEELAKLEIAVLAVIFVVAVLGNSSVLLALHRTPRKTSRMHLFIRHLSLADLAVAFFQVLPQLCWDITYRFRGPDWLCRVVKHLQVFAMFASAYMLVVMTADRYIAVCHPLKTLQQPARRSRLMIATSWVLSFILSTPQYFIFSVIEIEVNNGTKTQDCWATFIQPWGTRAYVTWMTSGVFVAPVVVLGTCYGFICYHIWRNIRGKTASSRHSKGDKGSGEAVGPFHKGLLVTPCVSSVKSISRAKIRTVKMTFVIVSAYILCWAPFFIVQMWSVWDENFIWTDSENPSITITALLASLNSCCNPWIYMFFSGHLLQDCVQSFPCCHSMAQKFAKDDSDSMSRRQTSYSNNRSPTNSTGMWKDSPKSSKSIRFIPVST
T1 sequence (Q00788 whole entry): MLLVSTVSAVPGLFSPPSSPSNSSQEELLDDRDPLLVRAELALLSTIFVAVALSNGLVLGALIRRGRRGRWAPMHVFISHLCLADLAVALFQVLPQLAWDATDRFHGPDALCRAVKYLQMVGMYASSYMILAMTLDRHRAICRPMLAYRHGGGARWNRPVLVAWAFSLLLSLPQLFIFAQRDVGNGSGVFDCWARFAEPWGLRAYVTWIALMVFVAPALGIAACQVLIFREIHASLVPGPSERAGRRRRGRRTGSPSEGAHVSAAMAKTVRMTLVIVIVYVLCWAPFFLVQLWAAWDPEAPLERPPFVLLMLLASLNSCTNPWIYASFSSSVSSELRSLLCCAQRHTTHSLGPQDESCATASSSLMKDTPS

Structure (SMILES): O=C(Nc1ccc(C(=O)N2Cc3cccn3Cc3ccccc32)cc1)c1sc2ccccc2c1Cl [Example 82, N-[4-(5H-Pyrrolo[2,1-c][1,4]benzodiazepin-10(11H)-ylcarbonyl)phenyl]-3-chlorobenzo[b]thiophene-2-carboxamide]
% Inhibition [1, 5]: 24%
Average Change [1, 5]: 36
% Inhibition [1, 6]: -5%
Average Change [1, 6]: 54
% Inhibition [1, 7]: 67%
Average Change [1, 7]: 15.5
% Inhibition [1, 8]: 51%
Average Change [1, 8]: 23.5
% Inhibition [1, 9]: 65%
Average Change [1, 9]: 16.5
% Inhibition [1, 10]: 61%
Average Change [1, 10]: 18.5
% Inhibition [1, 11]: 39%
Average Change [1, 11]: 29
% Inhibition [1, 12]: 33%
Average Change [1, 12]: 32
% Inhibition [1, 13]: 28%
Average Change [1, 13]: 37
% Inhibition [1, 14]: 53%
Average Change [1, 14]: 24
% Inhibition [1, 15]: 25%
Average Change [1, 15]: 38.5
% Inhibition [1, 16]: 16%
Average Change [1, 16]: 43.5
% Inhibition [1, 17]: 18%
Average Change [1, 17]: 42
% Inhibition [1, 18]: -3%
Average Change [1, 18]: 53
inhibition at 10 µM ([2]; 10 μM, rat): 71%
inhibition at 10 µM ([3]; 2 h, 10 μM, rat): 23%
Osmolality ([4]; 20 mg/kg orally): 1300 mOsm/kg
Urine Volume ([4]; 20 mg/kg orally): 4.3 ml/4 hrs

Structure (SMILES): O=C(Nc1ccc(C(=O)N2Cc3cccn3Cc3ccccc32)cc1)c1cccc(F)c1F [Example 1]
% Inhibition [1, 5]: 88%
Average Change [1, 5]: 4
% Inhibition [1, 19]: 51%
Average Change [1, 19]: 16.5
% Inhibition [1, 20]: 37%
Average Change [1, 20]: 21
% Inhibition [1, 21]: 33%
Average Change [1, 21]: 22.5
% Inhibition [1, 22]: 13%
Average Change [1, 22]: 29
% Inhibition [1, 23]: 19%
Average Change [1, 23]: 27
% Inhibition [1, 24]: 4%
Average Change [1, 24]: 32
% Inhibition [1, 6]: 85%
Average Change [1, 6]: 8
% Inhibition [1, 25]: 62%
Average Change [1, 25]: 20
% Inhibition [1, 26]: 49%
Average Change [1, 26]: 27
% Inhibition [1, 27]: 29%
Average Change [1, 27]: 37.5
% Inhibition [1, 28]: 9%
Average Change [1, 28]: 48
% Inhibition [1, 29]: 25%
Average Change [1, 29]: 39.5
% Inhibition [1, 30]: 25%
Average Change [1, 30]: 39.5
IC50 [2]: 29 nM
IC50 [3]: 97 nM
Osmolality ([4]; 30 mg/kg orally): 1504 mOsm/kg
Urine Volume ([4]; 30 mg/kg orally): 1.1 ml/4 hrs

Structure (SMILES): O=C(Nc1ccc(C(=O)N2Cc3cccn3Cc3ccccc32)cc1)C1CCCCC1 [Example 358, N-[4-(5H-Pyrrolo[2,1-c][1,4]benzodiazepin-10(11)ylcarbonyl)phenyl]-cyclohexanecarboxamide]
% Inhibition [1, 5]: 67%
Average Change [1, 5]: 12
% Inhibition [1, 19]: 64%
Average Change [1, 19]: 13
% Inhibition [1, 20]: 52%
Average Change [1, 20]: 17.5
% Inhibition [1, 21]: 78%
Average Change [1, 21]: 8
% Inhibition [1, 22]: 52%
Average Change [1, 22]: 17.5
% Inhibition [1, 23]: 67%
Average Change [1, 23]: 12
% Inhibition [1, 24]: 48%
Average Change [1, 24]: 19
% Inhibition [1, 6]: 39%
Average Change [1, 6]: 24
% Inhibition [1, 25]: 75%
Average Change [1, 25]: 10
% Inhibition [1, 26]: 72%
Average Change [1, 26]: 11
% Inhibition [1, 27]: 65%
Average Change [1, 27]: 14
% Inhibition [1, 28]: 63%
Average Change [1, 28]: 14.5
% Inhibition [1, 29]: 61%
Average Change [1, 29]: 15.5
% Inhibition [1, 30]: 59%
Average Change [1, 30]: 16
IC50 [2]: 16 nM
IC50 [3]: 11 nM
Osmolality ([4]; 30 mg/kg orally): 875 mOsm/kg
Urine Volume ([4]; 30 mg/kg orally): 5.5 ml/4 hrs

Structure (SMILES): Cc1ccsc1C(=O)Nc1ccc(C(=O)N2Cc3cccn3Cc3ccccc32)cc1 [Example 5, N-[4-(5H-pyrrolo[2,1-c][1,4]benzodiazepin10(11H)-ylcarbonyl)phenyl]-3-methyl-2-thiophenecarboxamide]
% Inhibition [1, 5]: 83%
Average Change [1, 5]: 5.5
% Inhibition [1, 19]: 76%
Average Change [1, 19]: 7.5
% Inhibition [1, 20]: 71%
Average Change [1, 20]: 9
% Inhibition [1, 21]: 59%
Average Change [1, 21]: 13
% Inhibition [1, 22]: 62%
Average Change [1, 22]: 12
% Inhibition [1, 23]: 46%
Average Change [1, 23]: 17
% Inhibition [1, 24]: 5%
Average Change [1, 24]: 30
% Inhibition [1, 6]: 72%
Average Change [1, 6]: 13.5
% Inhibition [1, 25]: 78%
Average Change [1, 25]: 10.5
% Inhibition [1, 26]: 83%
Average Change [1, 26]: 8
% Inhibition [1, 27]: 69%
Average Change [1, 27]: 15
% Inhibition [1, 28]: 60%
Average Change [1, 28]: 19
% Inhibition [1, 29]: 51%
Average Change [1, 29]: 23.5
% Inhibition [1, 30]: 18%
Average Change [1, 30]: 39.5
IC50 [2]: 25 nM
IC50 [3]: 15 nM
Osmolality ([4]; 10 mg/kg orally): 1079 mOsm/kg
Urine Volume ([4]; 10 mg/kg orally): 8.5 ml/4 hrs
Osmolality ([4]; 30 mg/kg orally): 955 mOsm/kg
Urine Volume ([4]; 30 mg/kg orally): 7.7 ml/4 hrs

Further molecules by falling IC50 [2], results first:

IC50 [2]: 5 nM
IC50 [3]: 31 nM
Structure (SMILES): Cc1cccc(C(=O)Nc2ccc(C(=O)N3Cc4cccn4Cc4ccccc43)cc2)c1C [Example 467, N-[4-(5H-pyrrolo[2,1-c][1,4]benzodiazepin-10(11H)-ylcarbonyl)phenyl]-2,3-dimethylbenzamide]
Max. % Inhibition ([1]; 10 mg/kg i.v.): 65%
Time (of max. % inhibition) ([1]; 10 mg/kg i.v.): 120 min
Osmolality ([4]; 10 mg/kg orally): 365 mOsm/kg
Urine Volume ([4]; 10 mg/kg orally): 18 ml/4 hrs

IC50 [2]: 4 nM
IC50 [3]: 7 nM
Structure (SMILES): O=C(Cc1ccccc1Cl)Nc1ccc(C(=O)N2Cc3cccn3Cc3ccccc32)cc1 [Example 9, 2-Chloro-N-[4-(5H-pyrrolo[2,1-c][1,4]-benzodiazepin-10(11H)-ylcarbonyl)phenyl]benzeneacetamide]
Max. % Inhibition ([1]; 10 mg/kg i.v.): 95%
Time (of max. % inhibition) ([1]; 10 mg/kg i.v.): 60 min
Osmolality ([4]; 10 mg/kg orally): 702 mOsm/kg
Urine Volume ([4]; 10 mg/kg orally): 5.8 ml/4 hrs

IC50 [2]: 4 nM
IC50 [3]: 26 nM
Structure (SMILES): Cc1c(F)cccc1C(=O)Nc1ccc(C(=O)N2Cc3cccn3Cc3ccccc32)cc1 [Example 466, N-[4-(5H-pyrrolo[2,1-c][1,4]benzodiazepin-10(11H)-ylcarbonyl)phenyl]-3-fluoro-2-methylbenzamide]
Max. % Inhibition ([1]; 30 mg/kg i.v.): 94%
Time (of max. % inhibition) ([1]; 30 mg/kg i.v.): 94 min
Osmolality ([4]; 10 mg/kg orally): 522 mOsm/kg
Urine Volume ([4]; 10 mg/kg orally): 14.1 ml/4 hrs
